Some test systems named below: SNB-75; MOLT-4; UACC-62; IGROV-1; RPMI-8226; 786-0; HCC 2998; NCI/ADR-RES; HCT-15; A498; Malme-3M; SK-OV-3; OVCAR-3; T47D; U-251; K562; M14; HOP-92; PC-3; BT-549.
Holding throughout (assay): inhibition of tumour cell growth, NCI panel, 48 h

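These data come from cells grown in 96-well plates and exposed to compound for 48 hours at five concentrations. Here, GI50 denotes the concentration required for 50% inhibition of growth.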 The source made the active and inactive calls. Rule as the data show it: active = GI50 up to about 1.1 µM and inactive = higher. Bounds are passed on as bounds.

Consider `CC1CCCCN1CC(=O)c1ccc2c(c1)Sc1ccccc1O2` (stereo not given), for which the GI50 is 11 µM (inactive) in the assay on SNB-75; 19.3 µM (inactive) in the assay with MOLT-4; 13.3 µM (inactive) in the assay with UACC-62; 6.49 µM (inactive) in the assay with IGROV-1; > 100 µM (inactive) in the assay with RPMI-8226; 14.1 µM (inactive) in the assay on 786-0. For the same molecule, the GI50 is 17.7 µM (inactive) in the assay on HCC 2998; 16.7 µM (inactive) with NCI/ADR-RES; 19.7 µM in the assay on HCT-15; 18.8 µM (inactive) in the assay with A498; 13.5 µM (inactive) in the assay on Malme-3M; 16.4 µM (inactive) in the assay on SK-OV-3. Moreover, the GI50 in the assay with OVCAR-3 is 14.4 µM (inactive); in the assay on T47D it was 20.7 µM (inactive); in the assay with U-251, 14.1 µM (inactive); with K562, 30.3 µM (inactive); in the assay on M14, 19.5 µM (inactive); in the assay with HOP-92 it was 13.2 µM (inactive). For the same molecule, the GI50 with PC-3 was 11.8 µM (inactive).
Regarding `CC(=O)/C(=C/N1CC(=O)NC1=S)C(=O)Nc1ccccc1C`, the GI50 with SNB-75, in the assay with MOLT-4, in the assay with IGROV-1, in the assay with 786-0, with HCC 2998 and in the assay on NCI/ADR-RES was > 100 µM (inactive) in each case. For the same molecule, the GI50 was over 100 µM with HCT-15; > 100 µM (inactive) with A498; > 100 µM (inactive) in the assay with SK-OV-3; > 100 µM (inactive) in the assay with BT-549; > 100 µM (inactive) with OVCAR-3; > 100 µM (inactive) in the assay on T47D. The GI50 in the assay on U-251, in the assay with M14 and in the assay on HOP-92 was > 100 µM (inactive) each time.
As for `CCOc1ccc(/C=C2\NC(=S)N(/C=C3\C(=O)Oc4ccccc4C3=O)C2=O)cc1`, the GI50 in the assay on SNB-75 is 23 µM (inactive); in the assay on MOLT-4, 24.3 µM (inactive); in the assay on UACC-62, 17.5 µM (inactive); in the assay on IGROV-1, 24.8 µM (inactive); in the assay on 786-0, 19.2 µM (inactive); in the assay on HCC 2998, 32.1 µM (inactive). The GI50 is 23.1 µM (inactive) in the assay with NCI/ADR-RES; 20.7 µM in the assay on HCT-15; 17.9 µM (inactive) with SK-OV-3; 23.6 µM (inactive) in the assay on BT-549; 21.1 µM (inactive) in the assay on OVCAR-3; 29 µM (inactive) in the assay on U-251. For the same molecule, the GI50 in the assay on M14 is 31.6 µM (inactive); in the assay on HOP-92 it was 22.8 µM (inactive); in the assay on PC-3, 18.1 µM (inactive).
Take `Cc1c(O)c(C)c2c(C)cn(C(=O)C(C)(C)C)c2c1C`: the GI50 with SNB-75 is 0.0201 µM (active); in the assay with MOLT-4, 23 µM (inactive); in the assay with UACC-62, 14.7 µM (inactive); with IGROV-1 it was 21.6 µM (inactive); in the assay on RPMI-8226, 29.6 µM (inactive); in the assay with 786-0, 15.2 µM (inactive). For the same molecule, the GI50 in the assay on HCC 2998 was 31.3 µM (inactive); in the assay with NCI/ADR-RES, 34.1 µM (inactive); in the assay with HCT-15, 21.8 µM; with A498, 16.5 µM (inactive); in the assay with SK-OV-3 it was 22.2 µM (inactive); in the assay on OVCAR-3, 43.4 µM (inactive). Also, the GI50 in the assay on T47D was 23.5 µM (inactive); in the assay on U-251, 27.3 µM (inactive); with K562, 24 µM (inactive); in the assay with M14 it was 16.7 µM (inactive); in the assay with HOP-92, 0.0206 µM (active); with PC-3 it was 21.2 µM (inactive).
Turning to `CCCCc1c2c(nc3c1CCCC3O)CCCC2` (stereo not given), the GI50 was > 100 µM (inactive) in the assay with SNB-75; 71 µM (inactive) in the assay on MOLT-4; > 100 µM (inactive) in the assay on UACC-62; > 100 µM (inactive) in the assay with IGROV-1; > 100 µM (inactive) with RPMI-8226; > 100 µM (inactive) in the assay on 786-0. The GI50 in the assay with HCC 2998 was > 100 µM (inactive); in the assay on NCI/ADR-RES, > 100 µM (inactive); in the assay on HCT-15, over 100 µM; in the assay with A498, > 100 µM (inactive); with Malme-3M it was > 100 µM (inactive); in the assay on SK-OV-3, > 100 µM (inactive). For the same molecule, the GI50 in the assay with BT-549 was > 100 µM (inactive); with OVCAR-3 it was 71.8 µM (inactive); with U-251, > 100 µM (inactive); in the assay with K562 it was 84.3 µM (inactive); with M14 it was > 100 µM (inactive); in the assay on HOP-92 it was 79.4 µM (inactive). Moreover, in the assay with PC-3, the GI50 is > 100 µM (inactive).
As for `CC(C)(C)c1cc2c(O)c(c1)Cc1cc(C(C)(C)C)cc(c1O)Cc1cc(C(C)(C)C)cc(c1O)Cc1cc(C(C)(C)C)cc(c1O)Cc1cc(C(C)(C)C)cc(c1O)Cc1cc(C(C)(C)C)cc(c1O)Cc1cc(C(C)(C)C)cc(c1O)Cc1cc(C(C)(C)C)cc(c1O)C2`, the GI50 in the assay on SNB-75, with MOLT-4, with UACC-62, with IGROV-1, in the assay with RPMI-8226 and in the assay on 786-0 was > 50 µM (inactive) each time. Moreover, the GI50 is > 50 µM (inactive) in the assay on HCC 2998; > 50 µM (inactive) with NCI/ADR-RES; over 50 µM in the assay on HCT-15; > 50 µM (inactive) with A498; > 50 µM (inactive) in the assay on Malme-3M; > 50 µM (inactive) with SK-OV-3. Also, the GI50 in the assay on OVCAR-3, in the assay on T47D, in the assay on U-251, in the assay on K562, with M14 and in the assay on HOP-92 was > 50 µM (inactive) throughout. The GI50 with PC-3 is > 50 µM (inactive).
For the molecule `CC[C@@H]1CC[C@@H]2[C@H](CC[C@]3(C)[C@@H](OS(=O)(=O)c4ccc(C)cc4)CC[C@@H]23)[C@H]1COS(=O)(=O)c1ccc(C)cc1`, the GI50 in the assay with MOLT-4, in the assay on IGROV-1, in the assay with RPMI-8226, in the assay on 786-0, in the assay with HCC 2998 and in the assay with NCI/ADR-RES was > 100 µM (inactive) in each case. Moreover, the GI50 in the assay on HCT-15 was over 100 µM; in the assay on A498 it was > 100 µM (inactive); in the assay on Malme-3M, > 100 µM (inactive); in the assay on BT-549, > 100 µM (inactive); in the assay on U-251 it was > 100 µM (inactive); in the assay with K562, > 100 µM (inactive). In addition, the GI50 with M14, in the assay with HOP-92 and in the assay on PC-3 was > 100 µM (inactive) each time.
On to `COc1cc(OC)c2c3c(OC)cc(OC)c4c(=O)c(O)c(C[C@@H](C)O)c(c5c(C[C@@H](C)O)c(O)c(=O)c1c25)c43`, for which the GI50 with SNB-75 was 14.2 µM (inactive); in the assay on MOLT-4, 15.3 µM (inactive); with IGROV-1, 16.6 µM (inactive); with 786-0 it was 19.1 µM (inactive); with HCC 2998, 16.3 µM (inactive); with NCI/ADR-RES it was 30.3 µM (inactive). For the same molecule, the GI50 in the assay on HCT-15 is 19.2 µM; in the assay with A498, 28.8 µM (inactive); with SK-OV-3, 62.2 µM (inactive); with BT-549 it was 18.7 µM (inactive); in the assay with OVCAR-3, 1.02 µM (active); in the assay with T47D, 16.6 µM (inactive). Further, the GI50 with U-251 was 23.5 µM (inactive); with M14, 17.4 µM (inactive); in the assay on HOP-92, 14.5 µM (inactive).

The values above are taken from ChEMBL document CHEMBL1201862, “PubChem BioAssay data set” (2004).
